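In this assay, cells in 96-well plates receive the compound at five concentrations for 48 hours. Endpoints are linearly interpolated between the surrounding concentrations. GI50: concentration for 50% inhibition of growth. Definition used: TGI = concentration required for complete inhibition of growth.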
Columns and labels:
Assay in all cases: inhibition of tumour cell growth, NCI panel, 48 h
[1] = tested on: SK-MEL-2 melanoma
[2] = tested on: TK-10 renal
[3] = tested on: LOX IMVI melanoma
[4] = tested on: MOLT-4 leukemia
[5] = tested on: ACHN renal
[6] = tested on: MCF7 breast
[7] = tested on: OVCAR-8 ovarian
[8] = tested on: SNB-19 CNS
[9] = tested on: SK-MEL-5 melanoma
[10] = tested on: HCT-116 colon
[11] = tested on: RXF 393 renal
[12] = tested on: SK-MEL-28 melanoma
[13] = tested on: HOP-62 NSCLC
[14] = tested on: MDA-MB-435
[15] = tested on: NCI-H226 lung
[16] = tested on: DU-145 prostate
[17] = tested on: CCRF-CEM leukemia
[18] = tested on: COLO 205 colon
[19] = tested on: UO-31 renal
[20] = tested on: NCI-H23 lung
[21] = tested on: NCI-H460 lung
[22] = tested on: A549 NSCLC
[23] = tested on: 786-0 renal
[24] = tested on: HT29 colon
[25] = tested on: HCC-2998 colon
[26] = tested on: UACC-62 melanoma
[27] = tested on: U251 CNS
[28] = tested on: OVCAR-4 ovarian
[29] = tested on: OVCAR-3 ovarian
[30] = tested on: NCI/ADR-RES ovarian
[31] = tested on: SNB-75 CNS
[32] = tested on: SF-295 CNS
[33] = tested on: SR leukemia
[34] = tested on: OVCAR-5 ovarian
[35] = tested on: SN12C renal
[36] = tested on: RPMI-8226 leukemia
[37] = tested on: NCI-H522 lung
[38] = tested on: CAKI-1 renal
[39] = tested on: SF-539 CNS
[40] = tested on: BT-549 breast
[41] = tested on: PC-3 prostate
[42] = tested on: IGROV1 ovarian
[43] = tested on: K-562 leukemia
[44] = tested on: A498 renal
[45] = tested on: HCT-15 colon
[46] = tested on: SK-OV-3 ovarian
[47] = tested on: SF-268 CNS
[48] = tested on: KM12 colon
[49] = tested on: EKVX NSCLC
[50] = tested on: UACC-257 melanoma
[51] = tested on: SW-620 colon
[52] = tested on: HOP-92 NSCLC
[53] = tested on: MDA-MB-231 breast
[54] = tested on: MALME-3M melanoma
[55] = tested on: T-47D breast
[56] = tested on: HS 578T breast
[57] = tested on: M14 melanoma

SMILES: OCCCCC#Cc1ccccc1C#Cc1cccs1
- GI50 [1]: 19 µM
- TGI [1]: 37.9 µM
- GI50 [2]: 25.3 µM
- TGI [2]: 52.9 µM
- GI50 [3]: 13.9 µM
- TGI [3]: 26.8 µM
- GI50 [4]: 18.8 µM
- TGI [4]: 40.3 µM
- GI50 [5]: 15.5 µM
- TGI [5]: 28.8 µM
- GI50 [6]: 1.88 µM
- TGI [6]: 29.1 µM
- GI50 [7]: 16.4 µM
- TGI [7]: 31.2 µM
- GI50 [8]: 16.1 µM
- TGI [8]: 31.1 µM
- GI50 [9]: 13.3 µM
- TGI [9]: 26 µM
- GI50 [10]: 15.2 µM
- TGI [10]: 31.4 µM
- GI50 [11]: 15.8 µM
- TGI [11]: 30.3 µM
- GI50 [12]: 15.8 µM
- TGI [12]: 31.1 µM
- GI50 [13]: 13 µM
- TGI [13]: 26.5 µM
- GI50 [14]: 16.6 µM
- TGI [14]: 30.8 µM
- GI50 [15]: 18.9 µM
- TGI [15]: 43.6 µM
- GI50 [16]: 13 µM
- TGI [16]: 25.7 µM
- GI50 [17]: 2.29 µM
- TGI [17]: 11.5 µM
- GI50 [18]: 16.4 µM
- TGI [18]: 31.5 µM
- GI50 [19]: 16.9 µM
- TGI [19]: 30.6 µM
- GI50 [20]: 14.2 µM
- TGI [20]: 30.9 µM
- GI50 [21]: 15.1 µM
- TGI [21]: 29.8 µM
- GI50 [22]: 17.4 µM
- TGI [22]: 31.1 µM
- GI50 [23]: 14.3 µM
- TGI [23]: 27.9 µM
- GI50 [24]: 12 µM
- TGI [24]: 27.6 µM
- GI50 [25]: 18.3 µM
- TGI [25]: 33.7 µM
- GI50 [26]: 12.9 µM
- TGI [26]: 25.9 µM
- GI50 [27]: 13.9 µM
- TGI [27]: 27 µM
- GI50 [28]: 20.2 µM
- TGI [28]: 50.1 µM
- GI50 [29]: 15 µM
- TGI [29]: 28.9 µM
- GI50 [30]: 17.7 µM
- TGI [30]: 34.5 µM
- GI50 [31]: 11.8 µM
- TGI [31]: 24.8 µM
- GI50 [32]: 19 µM
- TGI [32]: 34.7 µM
- GI50 [33]: 1.85 µM
- TGI [33]: 14.5 µM
- GI50 [34]: 16.1 µM
- TGI [34]: 31.7 µM
- GI50 [35]: 16.3 µM
- TGI [35]: 31.7 µM
- GI50 [36]: 22 µM
- TGI [36]: 71 µM
- GI50 [37]: 18.5 µM
- TGI [37]: 35.6 µM
- GI50 [38]: 14.6 µM
- TGI [38]: 28.3 µM
- GI50 [39]: 12.9 µM
- TGI [39]: 25.9 µM
- GI50 [40]: 12.4 µM
- TGI [40]: 25.4 µM
- GI50 [41]: 16.2 µM
- TGI [41]: 30.8 µM
- GI50 [42]: 16.5 µM
- TGI [42]: 30.5 µM
- GI50 [43]: 20.3 µM
- TGI [43]: 70.6 µM
- GI50 [44]: 9.67 µM
- TGI [44]: 23.3 µM
- GI50 [45]: 13.1 µM
- TGI [45]: 26.5 µM
- GI50 [46]: 15.5 µM
- TGI [46]: 30.6 µM
- GI50 [47]: 15.8 µM
- TGI [47]: 32 µM
- GI50 [48]: 16.6 µM
- TGI [48]: 48 µM
- GI50 [49]: 10.8 µM
- TGI [49]: 23.9 µM
- GI50 [50]: 18.8 µM
- TGI [50]: 33 µM
- GI50 [51]: 15.9 µM
- TGI [51]: 30.6 µM
- GI50 [52]: 14.1 µM
- TGI [52]: 28.7 µM
- GI50 [53]: 10.6 µM
- TGI [53]: 23.3 µM
- GI50 [54]: 22.8 µM
- TGI [54]: 55.4 µM
- GI50 [55]: 1.18 µM
- TGI [55]: 23.2 µM
- GI50 [56]: 14.9 µM
- TGI [56]: 39.1 µM

SMILES: CCN(CC)CCNC(=O)c1cc2cc(NC(=O)c3cc4cc(NC(=O)c5cc6cc([N+](=O)[O-])ccc6[nH]5)ccc4[nH]3)ccc2[nH]1
- TGI [1]: > 100 µM
- TGI [2]: > 100 µM
- TGI [57]: > 100 µM
- TGI [3]: > 100 µM
- TGI [4]: > 100 µM
- TGI [5]: > 100 µM
- TGI [7]: > 100 µM
- TGI [8]: > 100 µM
- TGI [9]: > 100 µM
- TGI [11]: > 100 µM
- TGI [12]: > 100 µM
- TGI [13]: > 100 µM
- TGI [14]: > 100 µM
- TGI [15]: > 100 µM
- TGI [16]: > 100 µM
- TGI [17]: 67.3 µM
- TGI [18]: > 100 µM
- TGI [19]: > 100 µM
- TGI [20]: > 100 µM
- TGI [21]: > 100 µM
- TGI [22]: > 100 µM
- TGI [23]: > 100 µM
- TGI [24]: > 100 µM
- TGI [25]: > 100 µM
- TGI [26]: > 100 µM
- TGI [27]: > 100 µM
- TGI [28]: > 100 µM
- TGI [29]: > 100 µM
- TGI [30]: > 100 µM
- TGI [31]: > 100 µM
- TGI [32]: > 100 µM
- TGI [33]: 14.4 µM
- TGI [34]: > 100 µM
- TGI [35]: > 100 µM
- TGI [36]: > 100 µM
- TGI [37]: > 100 µM
- TGI [38]: > 100 µM
- TGI [40]: > 100 µM
- TGI [41]: > 100 µM
- TGI [42]: > 100 µM
- TGI [43]: > 100 µM
- TGI [44]: > 100 µM
- TGI [45]: > 100 µM
- TGI [46]: > 100 µM
- TGI [47]: > 100 µM
- TGI [48]: > 100 µM
- TGI [49]: > 100 µM
- TGI [50]: > 100 µM
- TGI [51]: > 100 µM
- TGI [52]: > 100 µM
- TGI [53]: > 100 µM
- TGI [54]: > 100 µM
- TGI [55]: > 100 µM
- TGI [56]: > 100 µM

From PubChem BioAssay (NCI)
